The supplement of paper PMC10307832

Compound: Cc1nc(NC(=O)N2CCC[C@H]2C(N)=O)sc1-c1ccnc(C(C)(C)C(F)(F)F)c1 [Alpelisib]
Test: relative viability (nuclei count vs DMSO), 5 days (fraction); higher = more cells survive
Outline: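 Viability was defined as treated-well nuclei divided by vehicle-well nuclei, with the median taken over replicate plates. Cells from lung cancer lines sat overnight at 37 °C in 1536-well plates, received five √10-spaced library-drug doses by pinning on vehicle-anchored plates, and grew 5 days without medium change before one-step fixation, permeabilisation and Hoechst staining, 4× imaging and MetaXpress nuclear counts. Only plates with control CV under 25% and at least one doubling were kept.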

Row | Cell Line | relative viability (0.04 µM) | relative viability (0.1265 µM) | relative viability (0.4 µM) | relative viability (1.265 µM) | relative viability (2 µM, anchor plate) | relative viability (4 µM)
1 | NCI-H2347 | 1.07 | 0.97 | 1.12 | 0.949 | 0.992 | 0.864
2 | SK-MES-1 | 0.975 | 0.998 | 1.09 | 0.894 | 0.896 | 0.757
3 | NCI-H3122 | 0.981 | 1.02 | 1.02 | 0.968 | 0.759 | 0.744
4 | NCI-H1623 | 0.853 | 0.893 | 1.07 | 0.629 |  | 0.631
5 | NCI-H23 | 0.94 | 0.798 | 0.913 | 0.739 | 0.78 | 0.706
6 | ABC-1 | 1.13 | 0.77 | 0.886 | 0.662 | 1.05 | 0.608
7 | NCI-H2228 | 0.947 | 0.881 | 1.04 | 0.686 | 0.742 | 0.495
8 | HCC-15 | 1.02 | 0.938 | 1.07 | 0.886 | 0.852 | 0.759
9 | NCI-H358 | 0.873 | 0.889 | 0.95 | 0.586 | 0.88 | 0.493
10 | NCI-H1648 | 0.712 | 0.986 | 0.778 | 0.576 |  | 0.257
11 | NCI-H1299 | 1.03 | 1.04 | 1.07 | 0.988 | 1.04 | 0.945
12 | COR-L23 | 0.959 | 1.09 | 1.08 | 0.837 | 0.739 | 0.786
13 | NCI-H2009 | 0.974 | 1.05 | 1.19 | 1.01 | 1.13 | 0.903
14 | NCI-H1755 | 0.989 | 1.01 | 0.986 | 0.876 | 0.942 | 0.853
15 | LCLC-97TM1 | 0.873 | 0.845 | 1.01 | 0.796 | 0.257 | 0.521
16 | NCI-H1703 | 0.89 | 0.642 | 0.654 | 0.465 | 0.348 | 0.462
17 | NCI-H2085 | 0.988 | 0.943 | 1.01 | 0.93 | 0.984 | 0.889
18 | NCI-H647 | 0.917 | 0.925 | 1.06 | 0.757 | 1.18 | 0.832
19 | BEN | 0.99 | 0.913 | 1.15 | 1.01 | 1.04 | 0.847
20 | NCI-H1944 | 0.94 | 1.13 | 0.915 | 0.79 | 0.842 | 0.447

Row | Cell Line | relative viability (0.04 µM) | relative viability (0.1265 µM) | relative viability (0.4 µM) | relative viability (1.265 µM) | relative viability (2 µM, anchor plate) | relative viability (4 µM)
21 | NCI-H1395 | 0.97 | 0.758 | 1 | 0.73 | 1.14 | 0.785
22 | 201T | 0.985 | 0.974 | 0.994 | 0.873 | 1.01 | 0.816
23 | NCI-H2405 | 1.02 | 0.965 | 0.973 | 0.824 | 0.749 | 0.703
24 | RERF-LC-KJ | 0.94 | 0.914 | 1.01 | 0.824 | 0.844 | 0.87
25 | NCI-H596 | 0.94 | 1.01 | 0.968 | 0.52 | 0.478 | 0.567
26 | NCI-H1993 | 0.862 | 0.86 | 0.961 | 0.698 | 0.707 | 0.609
27 | EPLC-272H | 0.898 | 0.864 | 0.984 | 0.778 | 0.92 | 0.61
28 | NCI-H1915 | 1.01 | 0.998 | 0.976 | 0.948 | 1.06 | 0.893
29 | LC-2-ad | 0.966 | 0.905 | 1.09 | 0.685 | 0.868 | 0.672
30 | A549 | 0.905 | 0.877 | 0.953 | 0.774 | 0.84 | 0.538
31 | NCI-H2126 | 1.02 | 1.01 | 0.936 | 0.791 | 0.746 | 0.758
32 | HCC-44 | 0.98 | 0.914 | 1.02 | 0.846 | 0.811 | 0.861
33 | HOP-62 | 1.04 | 1.06 | 1.1 | 0.863 | 0.974 | 0.955
34 | LCLC-103H | 0.972 | 0.956 | 0.959 | 0.779 | 0.969 | 0.749
35 | HARA | 0.921 | 1.17 | 0.995 | 0.817 | 0.805 | 0.504
36 | NCI-H2087 | 1.21 | 1.02 | 1.08 | 0.868 | 1 | 0.85
37 | NCI-H520 | 0.891 | 0.935 | 1.11 | 0.725 | 0.945 | 0.503
38 | HCC-78 | 0.93 | 0.798 | 0.897 | 0.664 | 0.378 | 0.655
39 | COR-L 105 | 0.931 | 1 | 1.21 | 0.876 | 1.03 | 0.853
40 | NCI-H1437 | 1 | 0.948 | 1.06 | 0.864 | 0.965 | 0.89
